Reference: patent US20180045675A1, “SINGLE-CELL INTRACELLULAR NANO-PH PROBES” (The Regents of the University of California, priority 2015, published 2018)

Test system: MDA-MB-231 cells
Assay: real-time intracellular pH measurement with nano-pH probe during chloride channel blocker exposure
Type: cell-based, human
Settings: single MDA-MB-231 cells
Source text: Sensing setup. To carry out analytical characterization experiments of chitosan-modified nanopipette sensors, a two-electrode setup connected to a potentiostat (1030C, CH Instruments Inc.) was used for sensing. A 125 μm platinum wire (Goodfellow Corporation) placed into nanopipettes filled with electrolyte served as the working electrode while a pseudo Ag/AgCl electrode placed in bulk solution (PBS or cell media) served as the reference electrode. Linear sweep voltammetry was utilized for all in vitro measurements with a scan rate of 0.1 V/sec.
Intracellular measurements were performed by combining the potentiostat and scanning ion conductance microscope (SICM) with a low-noise mechanical switch. The SICM setup consisted of an Axopatch 200B amplifier (Molecular Devices) for current feedback measurements, a MP-285 motorized micromanipulator (Sutter Instrument) for coarse positioning of the nano-pH probe, a piezo stage (NanoCube, Physik Instrumente) for fine positioning and insertion of the nano-pH probe sensors, and a programmable interface for hardware control of the setup. This system is run by custom software written in LabVIEW (National Instruments). All experiments with cells were conducted on an inverted fluorescence microscope (Olympus IX 70) equipped with an eyepiece camera (Dino-Eye, Big C).
Cell culture. […]
Chitosan-modified nanopipettes were inserted to individual cells using a customized scanning ion conductance microscope which detects current feedback for positioning the nanopipettes. […] After the insertion of the nano-pH probe into a cell, linear sweep voltammograms were recorded and the current-responses at a bias potential of 0.6 V were used to calculate the intracellular pH levels of single cells.
The present nano-pH probe can be used to monitor intracellular pH changes during drug therapy. […] Conventionally, the change in pH has been measured indirectly by introduction of fluorescent dye (BCECF-AM)^47,48. […] The measured pH levels stabilized by 4 min post NPPB introduction. […]

O=C(O)c1cc([N+](=O)[O-])ccc1NCCCc1ccccc1 [NPPB, 5-nitro-2-(3-phenylpropylamino)-benzoate]
time by which measured pH levels stabilized post NPPB introduction (100 μM NPPB): ≤ 4 min
time within which intracellular pH level dropped significantly after introduction of NPPB (100 μM NPPB): ≤ 2 min
lowest intracellular pH level after introduction of NPPB (100 μM NPPB in cell media, readings every 21 sec for 7 min, baseline around 7): 2.5
